Entries after “also recorded” stand apart in the source; their conditions may differ. Where a name gives a salt, the structure may show the parent alone. Read-outs that look alike come from different tables or passages of the source.
Tests used:
PCP RECEPTOR = assay: PCP receptor binding assay ([3H]-TCP displacement, brain membranes); parameters: species or system guinea-pig (male Hartley)
Protocol: (§1) This example illustrates testing of compounds in receptor binding assays.
(§2) Frozen brains from male Hartley guinea-pigs were obtained from Pel-Freeze (Rogers, Arkansas).
(§3) The brains plus cerebella were homogenized in 10 volumes (v/w) of 0.1M, pH 7.4, ice-cold Tris-HCl buffer with a Brinkmann polytron at setting 4 for 20 seconds. The homogenates were centrifuged at 20,000×g for 20 minutes at 4° C. The pellets were suspended in 10 volumes of ice-cold water and, after sitting on ice for 10 minutes, were centrifuged 30 minutes at 20,000×g at 4° C. The resulting pellets were resuspended in the above Tris buffer in ratio 1:100 (w/v) for σ receptor assays or in 5 mM Tris-HCl having pH 7.4, for PCP receptor assays. The final suspension was homogenized with a dounce glass-glass tissue grinder Wheaton "200", at small clearance (B), with three strokes before use. Two milliter aliquots of the brain membrane preparation, containing 1.7 mg of protein, were incubated in quadruplicate for one hour at 23° C. with competing mixture of ligand and radioligand. For σ receptors, [^3 H]-d-SKF-10,047, 2 nM was used. For PCP receptors, [^3 H] TCP [^3 H]-1-[1-(2-thienyl)cyclohexyl]piperidine), 1 nM was used. The nonspecific bindings were defined by 0.1 mM d-SKF-10,047 and 0.1 mM phencyclidine respectively for σ and PCP receptors. After incubation, free ligand was separated from bound ligand by rapid filtration through Whatman GF/C filters. The filters had been soaked before use in isoamyl alcohol-saturated water to prevent nonspecific [^3 H]-d-SKF-10,047 binding to the filter. In the PCP receptor assay, the filter was soaked in 0.5% polyethylenimine to reduce the filter binding of [^3 H]-TCP. After filtration, the trapped tissue was washed three times with 4 ml aliquots of 0.1 M ice-cold Tris buffer at pH 7.4 for σ receptors and 5 mM, ice-cold Tris buffer pH 7.4 for PCP receptors. The filters were transferred to 5 ml of liquid scintillation fluid and the retained radioactivity was measured by liquid scintillation spectrometry.
(§4) Programs in Biomed. 17:107 (1983)].

SIGMA RECEPTOR = target: T1, SIGMA RECEPTOR (Cavia porcellus, UniProt Q60492); assay: Sigma receptor binding assay ([3H]-d-SKF-10,047 displacement, brain membranes); parameters: species or system guinea-pig (male Hartley)
T1 construct: Two milliter aliquots of the brain membrane preparation, containing 1.7 mg of protein; tissue Pel-Freeze (Rogers, Arkansas); host or cells: guinea-pig brains plus cerebella, membranes
Protocol: as §1, §2, §3

5-HT2 = 5-HT2 (Cavia porcellus, UniProt A0A286Y537); assay: 5-HT2 receptor binding; parameters: species or system guinea-pig
Excerpt: (§5) This example illustrates the testing of compounds of this invention in dopamine D2, 5-HT2, muscarinic acetylcholine, α1 -adrenoceptor and β-adrenoceptor receptor assays. The receptor assay methods are described in Eur. J. Pharmacol., 155:345 (1988) except that in the β-adrenoceptor assay, [^125 I]-pindolol was used instead of [^3 H] dihydroalprenolol.
(§6) In this study, guinea-pig brains were used for binding studies. Homogenization and centrifugation procedures for preparation of brain membranes for each receptor assay were the same as described in Example 4 for the σ and PCP receptors. However, brain regions, tissue contents, and buffers may differ depending on the assay. Conditions of binding assays for various receptors were as follows:
(§7) Filtration and washing conditions were the same as described above for the σ receptor assay. Nonspecific binding for each receptor was defined by the inclusion of 1 μM haloperidol for dopamine D2, 1 μM haloperidol for 5-HT2, 10 μM scopolamine for muscarinic acetylcholine, 10 μM prazosin for α1 -adrenoceptor, and 0.2 μM 1-propranolol for β-adrenoceptor. Retained radioactivity was measured by liquid scintillation spectrometry except for ^125 I-pindolol which was measured by the LKB gamma counter.
as §4

α1 -ADRENOCEPTOR = assay: α1-adrenoceptor binding ([3H]-prazosin); parameters: species or system guinea-pig
Excerpt: as §5, §6
For α1 -adrenoceptor assay, [^3 H]-prazosin (0.4 nM) was incubated in a 1 ml assay (50 mM Tris-HCl, pH 7.4) for 1 hour at 23° C. with membranes from 1 mg of whole brain minus cerebellum.
as §7, §4

β-ADRENOCEPTOR = assay: β-adrenoceptor binding ([125I]-pindolol); parameters: species or system guinea-pig
Excerpt: as §5, §6
For β-adrenoceptor, [^125 I]-pindolol (0.05 nM) was incubated in a 1 ml assay (50 mM Tris-HCl, pH 7.4) for 1 hr at 23° C. with membranes from 1 mg of whole brain minus cerebellum.
as §7, §4

MUSCARINIC ACETYLCHOLINE = assay type: binding, guinea-pig
Excerpt: as §5, §6
For muscarinic acetylcholine assay, […]) [^3 H]-quinuclidinyl benzylate ([^3 H]-QNB) was incubated in a 2 ml assay (50 mM Tris-HCl, pH 7.4) for 2 hours at 23° C. with membranes from 2 mg of whole brain minus cerebellum.
as §7, §4

[1] = Table 1, mean ± error (n), read-out: PCP RECEPTOR IC50
[2] = Table 1, mean ± error (n), read-out: SIGMA RECEPTOR IC50
[3] = Table 1, slope of dose response curve
[4] = Table 2, aryl ring substituents, read-out: PCP RECEPTOR IC50
[5] = Table 2, aryl ring substituents, read-out: SIGMA RECEPTOR IC50

5-HT2, sequence (A0A286Y537 1-470): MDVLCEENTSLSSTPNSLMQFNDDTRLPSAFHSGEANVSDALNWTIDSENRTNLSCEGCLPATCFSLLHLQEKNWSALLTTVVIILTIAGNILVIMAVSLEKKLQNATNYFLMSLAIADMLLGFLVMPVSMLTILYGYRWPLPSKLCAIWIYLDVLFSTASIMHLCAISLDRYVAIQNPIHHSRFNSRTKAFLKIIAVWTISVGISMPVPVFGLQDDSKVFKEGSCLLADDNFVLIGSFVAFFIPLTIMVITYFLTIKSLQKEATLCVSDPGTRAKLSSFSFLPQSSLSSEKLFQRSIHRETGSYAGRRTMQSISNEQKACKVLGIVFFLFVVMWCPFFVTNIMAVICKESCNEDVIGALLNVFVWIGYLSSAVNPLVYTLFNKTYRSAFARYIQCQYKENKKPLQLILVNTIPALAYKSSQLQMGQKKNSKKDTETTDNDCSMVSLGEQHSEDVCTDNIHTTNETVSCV
T1 sequence (Q60492 whole entry): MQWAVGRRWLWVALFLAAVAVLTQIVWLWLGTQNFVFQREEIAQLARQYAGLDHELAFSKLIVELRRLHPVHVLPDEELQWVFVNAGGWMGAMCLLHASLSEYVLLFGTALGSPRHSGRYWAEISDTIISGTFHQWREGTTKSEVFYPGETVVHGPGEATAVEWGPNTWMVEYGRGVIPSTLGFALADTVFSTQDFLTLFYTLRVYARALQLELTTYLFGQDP

| Compound | potency at PCP receptors (in words) (PCP RECEPTOR) | IC50 (PCP RECEPTOR; [1]) [nM] | IC50 (SIGMA RECEPTOR; [2]) [µM] | SIGMA RECEPTOR SLOPE (SIGMA RECEPTOR; [3]) | IC50 (PCP RECEPTOR; [4]) [nM] | SIGMA RECEPTOR SLOPE (SIGMA RECEPTOR; Table 2) | IC50 (SIGMA RECEPTOR; [5]) [µM] | potency at σ receptors (in words) (SIGMA RECEPTOR) | also measured |
| --- | --- | --- | --- | --- | --- | --- | --- | --- | --- |
| C[N+](C)(C)CCOC(=O)C1(c2ccccc2)CCCCC1 [Compound 20] | inactive in the PCP assay; also recorded: did not increase potency for PCP receptors | > 25000 | 12.3 | 1.22 ± 0.15 |  |  |  |  |  |
| Cc1ccc(C2(CN(C)C)CCCCC2)cc1 [Compound 41] |  |  |  |  | > 25000 | 0.62 ± 0.03 | 0.541 |  |  |
| c1ccc(C2(CN3CCCCC3)CC2)cc1 [Compound 45] |  |  |  |  |  |  |  |  | IC50 (PCP RECEPTOR; Table 3, cycloalkyl ring size, read-out: PCP RECEPTOR IC50): 8840 nM; SIGMA RECEPTOR SLOPE (SIGMA RECEPTOR; Table 3): 0.83 ± 0.19; IC50 (SIGMA RECEPTOR; Table 3, cycloalkyl ring size, read-out: SIGMA RECEPTOR IC50): 5.59 µM |
| c1ccc(C2(N3CCCC3)CCCCC2)cc1 [Compound 5, 1-(1-phenylcyclohexyl)pyrrolidine, reference compound] |  | 110 ± 6 |  | 0.83 ± 0.06 |  |  |  |  | IC50 (SIGMA RECEPTOR; SIGMA RECEPTOR IC50, Table 1, mean ± error (n)): 7.73 µM |
| O=C(OCCN1CCOCC1)C1(c2ccccc2)CCCCC1 [Compound 12, 2-(4-Morpholino)ethyl 1-phenylcyclohexane-1-carboxylate hydrochloride] |  | > 100000 |  | 0.48 ± 0.05 |  |  |  |  | IC50 (5-HT2; Table 4, IC50 and nM only stated in text, read-out: 5-HT2): 18700 nM; IC50 (5-HT2; read-out: potency for 5-HT2): 18700 nM; more potent at σ receptors than at 5-HT2 receptors (5-HT2; selectivity σ vs 5-HT2): ≥ 400 fold; IC50 (PCP RECEPTOR; Table 4, IC50 and nM only stated in text, read-out: PCP): > 100000 nM; potency at PCP receptors (in words) (PCP RECEPTOR; hydrochloride): inactive in the PCP assay; also recorded: very weak or inactive in the PCP assay; also recorded: negligible; also recorded: low potency at PCP receptors; also recorded: relative inactivity; IC50 (PCP RECEPTOR; read-out: IC50 / potency for PCP receptors): < 100000 nM; IC50 (α1 -ADRENOCEPTOR; Table 4, IC50 and nM only stated in text, read-out: α1 -ADRENOCEPTOR): > 100000 nM; IC50 (α1 -ADRENOCEPTOR; read-out: potency for α1-adrenoceptor): > 100000 nM; IC50 (β-ADRENOCEPTOR; Table 4, IC50 and nM only stated in text, read-out: β-ADRENOCEPTOR): > 200000 nM; IC50 (β-ADRENOCEPTOR; read-out: potency for β-adrenoceptor): > 200000 nM; IC50 (MUSCARINIC ACETYLCHOLINE; Table 4, IC50 and nM only stated in text, read-out: MUSCARINIC ACETYLCHOLINE): 14000 nM; IC50 (MUSCARINIC ACETYLCHOLINE; read-out: potency (IC50) at muscarinic acetylcholine receptor): 14000 nM; more potent at σ receptors than at muscarinic acetylcholine receptors (MUSCARINIC ACETYLCHOLINE; selectivity σ vs muscarinic): at least 300 fold; potency at σ receptors (in words) (SIGMA RECEPTOR; hydrochloride): σ receptor potency increased; also recorded: very potent in the σ assay; also recorded: very high; σ potency compared with other known σ ligands (in words) (SIGMA RECEPTOR; vs haloperidol, DTG, (+)-3-PPP, hydrochloride): not as great as other known σ ligands, such as for example haloperidol; also recorded: comparable to other σ ligands such a DTG and (+)-3-PPP |
| O=[N+]([O-])c1ccc(C2(CN3CCCCC3)CCCCC2)cc1 [Compound 24] |  |  |  |  | > 25000 | 0.47 ± 0.06 | 0.249 | slightly lower σ receptor potencies | selectivity for σ receptors (in words) (SIGMA RECEPTOR): substantially increases selectivity for σ receptors |
| C[N+]1(CCOC(=O)C2(c3ccccc3)CCCCC2)CCCC1 [Compound 9] | inactive in the PCP assay; also recorded: did not increase potency for PCP receptors | > 25000 | 0.242 | 0.62 ± 0.18 |  |  |  | σ receptor potency increased; also recorded: effectively reversed the potency for σ receptors |  |
| COc1ccc(C2(CN3CCCC3)CCCCC2)cc1 [Compound 34] | inactive at PCP sites |  |  |  | > 25000 | 0.80 ± 0.07 | 0.546 | somewhat potent | selectivity for σ receptors (in words) (SIGMA RECEPTOR): very selective for σ receptors |
| c1ccc(C2(CN3CCOCC3)CCCCC2)cc1 [Compound 11] | inactive in the PCP receptor assay | > 25000 | 0.71 | 0.60 ± 0.03 | > 25000 | 0.60 ± 0.03 |  | increased potency for σ receptors |  |

— patent publication US5086054A, “Novel arylcycloalkanepolyalkylamines” (SRI International, priority 1990, dated 1992)
